# Legend:
# Type in all cases: in vivo
# [1] = test system: Myzus persicae; test: Test Example 12: insecticidal test against Myzus persicae (leaf spray on young white radish plant, single and combined chemicals); details: after 5 days
# Protocol: Insecticidal Test Against Myzus persicae
# A chemical solution which has been diluted to have a pre-determined concentration was sprayed on a leaf part of young white radish plant having 1-stage larvae Myzus persicae present thereon. After air drying, they were left to stand in an incubator at 25° C. and the numbers of living insects and dead insects were examined after 5 days (2 series). Meanwhile, in Table 32, when combination of two types of test chemicals are used (i.e., A and B), the combination of the two types was described as A+B, and in the concentration column (ppm), it was described as concentration of A+concentration of B.
# [2] = test system: Laodelphax striatellus; test: whole plant or invertebrate; details: Laodelphax striatellus, in Oryza sativa, 144 h, read-out: Insect death ratio (%)
# Protocol: (§1) Insecticidal Test Against Laodelphax striatellus
# A chemical solution diluted to have a pre-determined concentration was sprayed to young rice plant (breed: Koshihikari) followed by air drying. Then, it was added to a glass test tube (diameter of 3 cm and height of 10 cm) added with water together with ten 3-stage larvae of Laodelphax striatellus. The tube was then covered. The number of living insects was determined after 6 days and the dead insect ratio was calculated. There were two series, i.e., 10 insects per group. Meanwhile, in Table 29, when combination of two types of test chemicals are used (i.e., A and B), the combination of the two types was described as A+B, and in the concentration column (ppm), it was described as concentration of A+concentration of B.
# [3] = test system: Nilaparvata lugens; test: Test Example 3: insecticidal test against Nilaparvata lugens (spray on young rice plant); details: after 6 days
# [4] = test system: Nilaparvata lugens; test: as above; details: after 6 days; remark: listed apart in the source
# Protocol: Insecticidal Test Against Nilaparvata lugens
# 2.5 ml of acetone solution prepared to have the test compound at the pre-determined concentration described in the following Table 28 was sprayed to young rice plant followed by air drying. Then, it was added to a glass bottle (diameter of 3 cm and height of 13 cm) added with water. Ten sensitive Nilaparvata lugens (3-stage) were released therein, and then the bottle was covered with a cap. After keeping them in an incubator at 25° C., the numbers of living insects and dead insects were determined after 6 days (two series). Meanwhile, as a comparative compound, imidacloprid was used.
# [5] = test system: Laodelphax striatellus; test: Test Example 14: insecticidal test against Laodelphax striatellus (spray on young rice plant, comparison with Reference Examples 3 and 4); details: after 6 days
# Protocol: as §1
# A young rice plant (breed: Koshihikari) was sprayed with a chemical solution which has been diluted to a pre-determined concentration followed by air drying. Then, it was added to a glass test tube (diameter of 3 cm and height of 10 cm) added with water, together with ten Laodelphax striatellus larvae (3-stage), and then the tube was covered with a cap. The number of dead insects was determined after 6 days and the insect death ratio was calculated. There were two series, i.e., 10 insects per group.
# Meanwhile, as a comparative compound, Reference Example 3 disclosed in the pamphlet of International Publication No. 2013/144088 and Reference Example 4 with C═O position different from the present compound were used.
# [6] = test system: Pyricularia oryzae; test: whole plant or invertebrate; details: Pyricularia oryzae, 168 h, read-out: Rice blast control value
# [7] = test system: Chilo suppressalis; test: Test Example 10: insecticidal test against Chilo suppressalis (rice stem dip, single and combined chemicals); details: Chilo suppressalis, 144 h; 100 ppm, after 6 days; read-out: Insect death ratio (%)
# Protocol: Insecticidal Test Against Chilo suppressalis
# A stem part was cut from a rice plant (breed: Koshihikari) cultivated in water and it was immersed in a chemical solution which has been diluted to have a pre-determined concentration. After air drying, it was put into a 9 cm polyethylene cup having a water-wetted filter paper laid on the bottom thereof, and 3-stage larvae of Chilo suppressalis were released and covered. They were left to stand in an incubator at 25° C., and the numbers of living insects and dead insects were examined after 6 days. There were two series, i.e., 5 insects per group. Meanwhile, in Table 30, when combination of two types of test chemicals are used (i.e., A and B), the combination of the two types was described as A+B, and in the concentration column (ppm), it was described as concentration of A+concentration of B.
# [8] = test system: Nilaparvata lugens; test: Test Example 13: insecticidal test against Nilaparvata lugens using paddy field rice cultivating box (granule treatment); details: for Adult insect death ratio (%): adults released 22 days after treatment, after 5 days; for Number of larvaes (number of insects): next generation larvae after 22 days
# Protocol: Insecticidal Test Against Nilaparvata lugens Using Paddy Field Rice Cultivating Box
# A rice plant (breed: Koshihikari) cultivated in cultivating box was treated with granules with a pre-determined chemical amount, and it was transplanted in two pots, i.e., four plants per 1/5000a pot. Twenty-two days after the treatment, 10 female adults of Nilaparvata lugens were released and the young plants were covered with a mesh. Then, the insect death ratio was determined after 5 days. In addition, the number of the next generation larvae was determined after 22 days. There were two series. Meanwhile, in Table 33, when combination of two types of test chemicals (i.e., A and B), the combination of the two types was described as A+B, and in the chemical amount column (g a.i./box), it was described as chemical amount of A+chemical amount of B.
compound,measurement,setting,value
"O=[N+]([O-])NC1=NCCN1Cc1ccc(Cl)nc1 [Imidacloprid, imidacloprid, reference compound]",Insect death ratio (%),[1]; 1 ppm,100%
same,pest or weed control at 0.1 ppm,"[2]; 0.1 ppm, after 6 days",30%
same,Resistant insect death ratio (%),[3]; 10 ppm spray,21.7%
same,Resistant insect death ratio (%),[3]; 100 ppm spray,50.4%
same,Sensitive insect death ratio (%),[4]; 10 ppm spray,100%
same,Sensitive insect death ratio (%),[4]; 100 ppm spray,100%
"CSc1nc2n(Cc3ccc(Br)nc3)ccc(=O)n2n1 [Reference Example 3, 4-((6-bromopyridin-3-yl)methyl)-2-(methylthio)-[1,2,4]triazolo[1,5-a]pyrimidin-7(4H)-one, reference compound]",Insect death ratio (%),[5]; 100 ppm,21%
"CC1=NNC(=O)N(/N=C/c2cccnc2)C1 [Pymetrozine, pymetrozine]",Insect death ratio (%),[1]; 1 ppm,89%
same,pest or weed control at 10 ppm,"[2]; 10 ppm, after 6 days",30%
"CSc1nc2n(Cc3ccc(Cl)nc3)c(C)cc(=O)n2n1 [compound 5, 4-((6-chloropyridin-3-yl)methyl)-5-methyl-2-(methylthio)-[1,2,4]triazolo[1,5-a]pyrimidin-7(4H)-one]",Insect death ratio (%),[1]; 100 ppm,73%
same,pest or weed control at 3 ppm,[2]; after 6 days,20%
same,pest or weed control at 100 ppm,[6],0%
same,Resistant insect death ratio (%),[3]; 10 ppm spray,95%
same,Resistant insect death ratio (%),[3]; 100 ppm spray,100%
same,pest or weed control at 100 ppm,[7],0%
same,Insect death ratio (%),[5]; 10 ppm,100%
same,Sensitive insect death ratio (%),[4]; 10 ppm spray,100%
same,Sensitive insect death ratio (%),[4]; 100 ppm spray,100%
"CN1COCN(Cc2cnc(Cl)s2)/C1=N\[N+](=O)[O-] [Thiamethoxam, thiamethoxam]",Insect death ratio (%),[1]; 1 ppm,94%
"CC(C)CC(C)c1sccc1NC(=O)c1cn(C)nc1C(F)(F)F (stereo not shown) [Penthiopyrad, penthiopyrad]",Insect death ratio (%),[1]; 100 ppm,13%
"C[Si](C)(C)CC(O)(Cn1cncn1)c1ccc(F)cc1 (stereo not shown) [Simeconazole, simeconazole, reference compound]",Adult insect death ratio (%),[8]; 2.25 g a.i./box granules,20%
same,Number of larvaes (number of insects),[8]; 2.25 g a.i./box granules,69 number of insects
"N#CCNC(=O)c1cnccc1C(F)(F)F [Flonicamid, flonicamid]",Insect death ratio (%),[1]; 1 ppm,79%
"CN/C(=N/CC1CCOC1)N[N+](=O)[O-] (stereo not shown) [Dinotefuran, dinotefuran]",Insect death ratio (%),[1]; 10 ppm,75%
same,pest or weed control at 1 ppm,[2],45%
"CSc1cc2n(Cc3ccc(Cl)nc3)c(C)cc(=O)n2n1 [compound 154, 4-((6-chloropyridin-3-yl)methyl)-5-methyl-2-(methylthio)-pyrazolo[1,5-a]pyrimidin-7(4H)-one]",Insect death ratio (%),[1]; 10 ppm,70%
same,Adult insect death ratio (%),[8]; 2 g a.i./box granules,90%
same,Number of larvaes (number of insects),[8]; 2 g a.i./box granules,0 number of insects
same,pest or weed control at 3 ppm,[2]; after 6 days,40%
same,pest or weed control at 100 ppm,[6],0%
same,Resistant insect death ratio (%),[3]; 10 ppm spray,100%
same,Resistant insect death ratio (%),[3]; 100 ppm spray,100%
same,pest or weed control at 100 ppm,[7],0%
same,Insect death ratio (%),[5]; 10 ppm,100%
same,Sensitive insect death ratio (%),[4]; 10 ppm spray,100%
same,Sensitive insect death ratio (%),[4]; 100 ppm spray,100%
"CSc1nc2n(Cc3ccc(Cl)nc3)c(=O)cc(C)n2n1 [Reference Example 4, 4-((6-chloropyridin-3-yl)methyl)-7-methyl-2-(methylthio)-[1,2,4]triazolo[1,5-a]pyrimidin-5(4H)-one, reference compound]",Insect death ratio (%),[5]; 1000 ppm,40%
lepimectin,Insect death ratio (%),[1]; 10 ppm,88%
"CC(=O)N1C(=O)N(NCc2cccnc2)Cc2cc(C(F)(C(F)(F)F)C(F)(F)F)ccc21 [Pyrifluquinazon, pyrifluquinazon]",Insect death ratio (%),[1]; 1 ppm,100%
milbemectin,Insect death ratio (%),[1]; 10 ppm,86%

# — US9963451B2, “Fused ring pyrimidine compound and pest control agent containing the same” (Mitsui Chemicals Agro, Inc., priority 2013, dated 2018)
